Laboratory results as given in patent US20060025566A1, “Macrocyclic modulators of the ghrelin receptor” (Tranzyme Pharma Inc., priority 2003, published 2006).

Target: T1, human growth hormone secretagogue receptor (hGHS-R1a) (Homo sapiens, UniProt Q92847)
T1 construct: purchased PerkinElmer BioSignal #RBHGHSM, lot#1887; host or cells: HEK-293, stably transfected (membranes)
Test: Competitive radioligand binding assay (ghrelin receptor), [125I]-ghrelin displacement on GHS-R/HEK 293 membranes
Details: [125I]-ghrelin competition, GHS-R/HEK 293 membranes; Table 3A; read-out: Binding Activity at the Human Ghrelin Receptor
Method: The competitive binding assay at the human growth hormone secretagogue receptor (hGHS-R1a) was carried out analogously to assays described in the literature.
Multiscreen Harvest plates-GF/C (Millipore, #MAHFC 1H60) • 4. […] Bottom seal (Millipore, #MATAH0P00) • 7. […] Binding Buffer: 25 mM Hepes (pH 7.4), 1 mM CaCl2, 5 mM MgCl2, 2.5 mM EDTA, 0.4% BSA Assay Volumes
Competition experiments were performed in a 300 μl filtration assay format. • 1. 220 μL of membranes diluted in binding buffer • 2. 40 μL of compound diluted in binding buffer • 3. […] Compound Handling
Compounds were provided frozen on dry ice at a stock concentration of 10 mM diluted in 100% DMSO and stored at −80° C. until the day of testing. On the test day, compounds were allowed to thaw at rt O/N and then diluted in assay buffer according to the desired test concentrations.
Plates were sealed with TopSeal-A, vortexed gently and incubated at rt for 30 min. The reaction was arrested by filtering samples through Multiscreen Harvest plates (pre-soaked in 0.5% polyethyleneimine) using a Tomtec Harvester, washed 9 times with 500 μL of cold 50 mM Tris-HCl (pH 7.4, 4° C.), and then plates were air-dried in a fumehood for 30 min. A bottom seal was applied to the plates prior to the addition of 25 μL of MicroScint-0 to each well. […] Results were expressed as counts per minute (cpm).
Data were analyzed by GraphPad Prism (GraphPad Software, San Diego, Calif.) using a variable slope non-linear regression analysis.
• 1. […] Key Aspects of Method • 1. […] Results

T1 sequence (Q92847 whole entry): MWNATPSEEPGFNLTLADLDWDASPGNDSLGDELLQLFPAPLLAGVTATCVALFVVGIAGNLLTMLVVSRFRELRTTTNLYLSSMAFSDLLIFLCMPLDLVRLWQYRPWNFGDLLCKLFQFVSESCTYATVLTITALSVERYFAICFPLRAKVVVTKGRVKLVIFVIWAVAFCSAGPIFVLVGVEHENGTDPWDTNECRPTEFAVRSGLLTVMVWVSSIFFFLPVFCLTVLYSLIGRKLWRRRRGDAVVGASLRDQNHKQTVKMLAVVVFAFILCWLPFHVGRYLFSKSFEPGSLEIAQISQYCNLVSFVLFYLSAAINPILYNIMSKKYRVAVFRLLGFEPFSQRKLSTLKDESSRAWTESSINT

Compared with `CCC(C)C1NC(=O)C2(CCCC2)NC(=O)C(CC(C)C)NCCOc2ccccc2C=CCNC1=O` (centres unmarked) [compound 166], `CC[C@@H](C)[C@H]1NC(=O)[C@@H](C)N(C)C(=O)[C@H]([C@@H](C)CC)NCCOc2ccccc2CCCNC1=O` [compound 175] is lower in Ki: greater than 10000 nM for the first, 100 to 1000 nM for the second. The second binds more tightly here.

First: CCC(C)C1NC(=O)C2(CCCC2)NC(=O)C(CC(C)C)NCCOc2ccccc2C=CCNC1=O (centres unmarked) [compound 167]
Second: CC[C@H](C)[C@@H]1NCCOc2ccccc2CCCNC(=O)[C@@H](C(C)C)NC(=O)[C@@H](C)N(C)C1=O [compound 174]
The Ki of the first is higher: greater than 10000 nM for the first, 100 to 1000 nM for the second.

First: CC[C@H](C)[C@@H]1NCCOc2ccccc2CCCNC(=O)[C@@H](CCc2ccccc2)NC(=O)[C@@H](C)N(C)C1=O [compound 169]
Second: CCCC1NC(=O)C(C)N(C)C(=O)C(C(C)CC)NCCOc2ccccc2CCCNC1=O (centres unmarked) [compound 173]
The Ki of the first is lower: 10 to 100 nM for the first, 100 to 1000 nM for the second. The first binds more tightly here.

First: CC[C@H](C)[C@@H]1NCCOc2ccccc2CCCNC(=O)[C@@H](Cc2ccncc2)NC(=O)[C@@H](C)N(C)C1=O [compound 171]
Second: CCC1NC(=O)C(C)N(C)C(=O)C(C(C)CC)NCCOc2ccccc2CCCNC1=O (centres unmarked) [compound 172]
The Ki of the first is lower: 10 to 100 nM for the first, greater than 10000 nM for the second. The first binds more tightly here.

Compound `CC[C@H]1NC(=O)[C@@H](C)N(C)C(=O)[C@H]([C@@H](C)CC)NCCOc2ccccc2CCCNC1=O` [compound 205] has a Ki greater than 10000 nM.

Same assay, conditions: binding activity at the human ghrelin receptor, [125I]-ghrelin competition, GHS-R/HEK 293 membranes; read-out: Ki

First: CCC[C@@H]1NCCOc2ccccc2CCCNC(=O)CNC(=O)CN(C)C1=O [compound 51]
Second: CCCC[C@H]1NC(=O)CN(C)C(=O)[C@H](CCC)NCCOc2ccccc2CCCNC1=O [compound 52]
The Ki of the first is higher: greater than 10000 nM for the first, 100 to 1000 nM for the second. The second binds more tightly here.

First: CCC[C@@H]1NCCOc2ccccc2CCCNC(=O)[C@@H](CCCN)NC(=O)CN(C)C1=O [compound 53]
Second: CN1CC(=O)N[C@H](Cc2ccccc2)C(=O)NCCCc2ccccc2OCCN[C@@H](CCCCN)C1=O [compound 74]
The Ki of the first is higher: greater than 10000 nM for the first, 1000 to 10000 nM for the second.

First: CCC[C@@H]1NCCOc2ccccc2CCCNC(=O)[C@@H](Cc2ccccc2)NC(=O)[C@H](C)NC1=O [compound 59]
Second: CCC[C@@H]1NCCOc2ccccc2CCCNC(=O)[C@@H](Cc2ccccc2)NC(=O)[C@@H](C)NC1=O [compound 60]
The Ki of the first is higher: 1000 to 10000 nM for the first, 100 to 1000 nM for the second. The second binds more tightly here.

`CCC[C@@H]1NCCOc2ccccc2CCCNC(=O)[C@@H](Cc2ccccc2)NC(=O)CNC1=O` [compound 61] and `CCC[C@@H]1NCCOc2ccccc2CCCNC(=O)[C@@H](Cc2ccccc2)NC(=O)C2(CCCC2)NC1=O` [compound 67] fall in the same range of Ki: 100 to 1000 nM for the first, 100 to 1000 nM for the second.

First: CCC[C@@H]1NCCOc2ccccc2CCCNC(=O)[C@@H](Cc2ccccc2)NC(=O)[C@H](CC(C)C)NC1=O [compound 62]
Second: CCC[C@@H]1NCCOc2ccccc2CCCNC(=O)[C@@H](Cc2ccccc2)NC(=O)[C@@H](CC(C)C)NC1=O [compound 63]
The Ki of the first is lower: 1000 to 10000 nM for the first, greater than 10000 nM for the second. The first binds more tightly here.

First: CCC[C@@H]1NCCOc2ccccc2CCCNC(=O)[C@@H](Cc2ccccc2)NC(=O)[C@H](Cc2ccccc2)NC1=O [compound 64]
Second: CCC[C@@H]1NCCOc2ccccc2CCCNC(=O)[C@@H](Cc2ccccc2)NC(=O)[C@H](CCCCN)NC1=O [compound 68]
The Ki of the first is higher: greater than 10000 nM for the first, 1000 to 10000 nM for the second. The second binds more tightly here.

First: C[C@@H]1NCCOc2ccccc2CCCNC(=O)[C@@H](Cc2ccccc2)NC(=O)CN(C)C1=O [compound 72]
Second: CN1CC(=O)N[C@H](Cc2ccccc2)C(=O)NCCCc2ccccc2OCCN[C@@H](CO)C1=O [compound 76]
The Ki of the first is lower: 1000 to 10000 nM for the first, greater than 10000 nM for the second. The first binds more tightly here.

`CN1CC(=O)N[C@H](Cc2ccccc2)C(=O)NCCCc2ccccc2OCCN[C@@H](CCC(=O)O)C1=O` [compound 73] and `CN1CC(=O)NC(Cc2ccccc2)C(=O)NCCCc2ccccc2OCCNCC1=O` (centres unmarked) [compound 80] cannot be ordered by Ki: greater than 10000 nM for the first, greater than 10000 nM for the second.

`CCCC1NCCOCCNC(=O)C(Cc2ccccc2)NC(=O)CN(C)C1=O` (centres unmarked) [compound 81] and `CCCC1NCCC#CCCNC(=O)C(Cc2ccccc2)NC(=O)CN(C)C1=O` (centres unmarked) [compound 82] cannot be ordered by Ki: greater than 10000 nM for the first, greater than 10000 nM for the second.

`CCCC1NCCC=CCCNC(=O)C(Cc2ccccc2)NC(=O)CN(C)C1=O` (centres unmarked) [compound 83] and `CCCC1NCc2cccc(c2)CCNC(=O)C(Cc2ccccc2)NC(=O)CN(C)C1=O` (centres unmarked) [compound 85] cannot be ordered by Ki: greater than 10000 nM for the first, greater than 10000 nM for the second.

Compared with `CCCC1NCc2cccc(c2)CNC(=O)C(Cc2ccccc2)NC(=O)CN(C)C1=O` (centres unmarked) [compound 84], `CCCC1NCc2csc(n2)CNC(=O)C(Cc2ccccc2)NC(=O)CN(C)C1=O` (centres unmarked) [compound 86] is higher in Ki: 1000 to 10000 nM for the first, greater than 10000 nM for the second. The first binds more tightly here.

First: CC(C)C[C@@H]1NCCOc2ccccc2CCCNC(=O)[C@H](Cc2ccc(O)cc2)NC(=O)C2(CCCC2)NC1=O [compound 88]
Second: CC(C)CC1NCCOc2ccccc2CCCNC(=O)C(Cc2ccccc2)NC(=O)C2(CCCC2)NC1=O (centres unmarked) [compound 96]
The Ki of the first is lower: 1000 to 10000 nM for the first, greater than 10000 nM for the second. The first binds more tightly here.

First: CC(C)C[C@@H]1NCCOc2ccccc2CCCNC(=O)[C@H](Cc2c[nH]c3ccccc23)NC(=O)C2(CCCC2)NC1=O [compound 89]
Second: CC(C)C[C@H]1NCCOc2ccccc2CCCNC(=O)[C@@H](Cc2ccccc2)NC(=O)C2(CCCC2)NC1=O [compound 98]
The Ki of the first is lower: 1000 to 10000 nM for the first, greater than 10000 nM for the second. The first binds more tightly here.

Compared with `CC(C)C[C@@H]1NCCOc2ccccc2CCCNC(=O)[C@H](CCc2ccccc2)NC(=O)C2(CCCC2)NC1=O` [compound 90], `CCCC[C@@H]1NCCOc2ccccc2CCCNC(=O)[C@H](Cc2ccccc2)NC(=O)C2(CCCC2)NC1=O` [compound 101] is lower in Ki: 1000 to 10000 nM for the first, 100 to 1000 nM for the second.

`CC(C)CC1NCCOc2ccccc2CCCNC(=O)C(CCCCN)NC(=O)C2(CCCC2)NC1=O` (centres unmarked) [compound 91] and `CC(C)C[C@@H]1NCCOc2ccccc2CCCNC(=O)[C@H](CCC(=O)O)NC(=O)C2(CCCC2)NC1=O` [compound 92] cannot be ordered by Ki: greater than 10000 nM for the first, greater than 10000 nM for the second.

`CC(C)CC1NCCOc2ccccc2CCCNC(=O)C(Cc2ccccc2)NC(=O)C(C)NC1=O` (centres unmarked) [compound 93] and `CC(C)C[C@@H]1NCCOc2ccccc2CCCNC(=O)[C@H](Cc2ccccc2)NC(=O)[C@@H](C)NC1=O` [compound 94] fall in the same range of Ki: 1000 to 10000 nM for the first, 1000 to 10000 nM for the second.

Compared with `CC(C)C[C@@H]1NCCOc2ccccc2CCCNC(=O)[C@H](Cc2ccccc2)NC(=O)C(C)(C)NC1=O` [compound 95], `CC(C)C[C@@H]1NCCOc2ccccc2CCCNC(=O)[C@@H](Cc2ccccc2)NC(=O)[C@@H](C)N(C)C1=O` [compound 118] is lower in Ki: 1000 to 10000 nM for the first, 10 to 100 nM for the second.

`C[C@@H]1NCCOc2ccccc2CCCNC(=O)[C@H](Cc2ccccc2)NC(=O)C2(CCCC2)NC1=O` [compound 100] and `O=C1NC2(CCCC2)C(=O)N[C@@H](Cc2ccccc2)C(=O)NCCCc2ccccc2OCCN[C@H]1CO` [compound 105] fall in the same range of Ki: 100 to 1000 nM for the first, 100 to 1000 nM for the second.

Compared with `O=C1NC2(CCCC2)C(=O)N[C@@H](Cc2ccccc2)C(=O)NCCCc2ccccc2OCCN[C@H]1Cc1ccccc1` [compound 102], `O=C(O)CC[C@@H]1NCCOc2ccccc2CCCNC(=O)[C@H](Cc2ccccc2)NC(=O)C2(CCCC2)NC1=O` [compound 104] is higher in Ki: 100 to 1000 nM for the first, greater than 10000 nM for the second.

Compared with `NCCCC[C@@H]1NCCOc2ccccc2CCCNC(=O)[C@H](Cc2ccccc2)NC(=O)C2(CCCC2)NC1=O` [compound 103], `O=C1CNCCOc2ccccc2CCCNC(=O)C(Cc2ccccc2)NC(=O)C2(CCCC2)N1` (centres unmarked) [compound 112] is lower in Ki: greater than 10000 nM for the first, 1000 to 10000 nM for the second. The second binds more tightly here.

`CC(C)CC1NCc2ccc(cc2)CCNC(=O)C(Cc2ccccc2)NC(=O)C2(CCCC2)NC1=O` (centres unmarked) [compound 115] and `O=C1NC2(CCCC2)C(=O)N[C@@H](Cc2ccccc2)C(=O)NC/C=C/c2ccccc2OCCN[C@H]1Cc1cccnc1` [compound 132] cannot be ordered by Ki: greater than 10000 nM for the first, greater than 1000 nM for the second.

First: C[C@@H]1C(=O)N[C@H](Cc2ccccc2)C(=O)NCCCc2ccccc2OCCN[C@@H]([C@@H](C)O)C(=O)N1C [compound 119]
Second: CO[C@H](C)[C@@H]1NCCOc2ccccc2CCCNC(=O)[C@@H](Cc2ccccc2)NC(=O)[C@@H](C)N(C)C1=O [compound 120]
The Ki of the first is higher: 100 to 1000 nM for the first, 10 to 100 nM for the second. The second binds more tightly here.

Compared with `C[C@@H]1C(=O)N[C@H](Cc2ccccc2)C(=O)NCCCc2ccccc2OCCNC2(CC2)C(=O)N1C` [compound 121], `CCC(C)C1NCCOc2ccccc2CCCNC(=O)C(Cc2ccccc2)NC(=O)C(C(C)C)N(C)C1=O` (centres unmarked) [compound 144] is lower in Ki: greater than 10000 nM for the first, 100 to 1000 nM for the second. The second binds more tightly here.

First: O=C1NC2(CCCC2)C(=O)NC(Cc2ccccc2)C(=O)NCC=Cc2ccccc2OCCNC1Cc1ccc(F)cc1 (centres unmarked) [compound 125]
Second: COc1ccc(CC2NCCOc3ccccc3C=CCNC(=O)C(Cc3ccccc3)NC(=O)C3(CCCC3)NC2=O)cc1 (centres unmarked) [compound 127]
The Ki of the first is higher: greater than 10000 nM for the first, 100 to 1000 nM for the second.

`O=C1NC2(CCCC2)C(=O)NC(Cc2ccccc2)C(=O)NCC=Cc2ccccc2OCCNC1Cc1cccc2ccccc12` (centres unmarked) [compound 130] and `CC[C@H](C)[C@@H]1NCCOc2ccccc2CCCNC(=O)[C@@H](Cc2ccccc2)NC(=O)[C@@H](CO)NC1=O` [compound 151] cannot be ordered by Ki: 1000 to 10000 nM for the first, greater than 1000 nM for the second.

`CCC(C)C1NCCOc2ccccc2CCCNC(=O)C(Cc2ccccc2)NC(=O)C(CC(C)C)N(C)C1=O` (centres unmarked) [compound 147] and `CC[C@H](C)[C@@H]1NCCOc2ccccc2CCCNC(=O)[C@@H](Cc2ccccc2)NC(=O)[C@H](CC(C)C)N(C)C1=O` [compound 148] cannot be ordered by Ki: greater than 1000 nM for the first, greater than 1000 nM for the second.

For `CCC(C)C1NCCOc2ccccc2CCCNC(=O)C(Cc2ccccc2)NC(=O)C(C(C)CC)N(C)C1=O` (centres unmarked) [compound 149], the Ki was 1000 to 10000 nM.
